Results reported in ChEMBL document CHEMBL1133307, “Synthesis of 5-substituted analogues of huperzine A” (Bioorg Med Chem Lett, 2000).

Key:
[1] = target: Acetylcholinesterase (Homo sapiens) (UniProt P22303); assay: Percent inhibition against acetylcholinesterase (ACHE) at a concentration of 35 uM
[2] = target: Acetylcholinesterase (Homo sapiens) (UniProt P22303); assay: Percent inhibition against acetylcholinesterase (ACHE) at a concentration of 47 uM
[3] = target: Acetylcholinesterase (Homo sapiens) (UniProt P22303); assay: Percent inhibition against acetylcholinesterase (ACHE) at a concentration of 88 uM

Sequence of Acetylcholinesterase (Homo sapiens) (P22303 whole entry): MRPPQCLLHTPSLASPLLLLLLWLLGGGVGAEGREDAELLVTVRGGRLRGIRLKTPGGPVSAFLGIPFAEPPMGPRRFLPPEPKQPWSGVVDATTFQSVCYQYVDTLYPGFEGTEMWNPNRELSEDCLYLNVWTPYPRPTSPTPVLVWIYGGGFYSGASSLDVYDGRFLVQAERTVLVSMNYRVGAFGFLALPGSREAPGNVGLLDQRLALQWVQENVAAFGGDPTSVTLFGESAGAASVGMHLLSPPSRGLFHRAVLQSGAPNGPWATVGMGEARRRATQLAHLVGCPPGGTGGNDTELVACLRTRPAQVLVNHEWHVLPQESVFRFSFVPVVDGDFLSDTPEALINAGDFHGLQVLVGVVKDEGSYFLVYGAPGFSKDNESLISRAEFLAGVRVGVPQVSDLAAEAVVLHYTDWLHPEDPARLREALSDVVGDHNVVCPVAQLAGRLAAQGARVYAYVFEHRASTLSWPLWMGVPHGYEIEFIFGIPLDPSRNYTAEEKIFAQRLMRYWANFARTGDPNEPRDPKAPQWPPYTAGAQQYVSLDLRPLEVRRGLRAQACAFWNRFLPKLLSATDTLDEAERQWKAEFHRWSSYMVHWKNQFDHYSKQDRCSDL

`C/C=C1\C2C=C(C)CC1(O)c1ccc(O)nc1C2` (stereo not drawn) gave an inhibition [1] of 50%.
In the case of `C/C=C1\C2C=C(C)CC1(F)c1ccc(O)nc1C2` (stereo not drawn), the inhibition [2] is reported as 50%.
`C/C=C1\C2C=C(C)CC1(OC(C)=O)c1ccc(O)nc1C2` (stereo not drawn) showed an inhibition [3] of 6.36%.
